Patent publication US8697739B2, “Bicyclic acetyl-CoA carboxylase inhibitors and uses thereof” (Novartis AG, priority 2010, dated 2014)

molecular target: T1, human acetyl-CoA carboxylase 2 (ACC2) (Homo sapiens, UniProt O00763); test: Acetyl-CoA carboxylase enzyme assay (malonyl-CoA formation by LC/MS/MS); format: biochemical; conditions: recombinant human ACC2 (aa 144-2458); read-out: IC50 ACC2
T1 construct: The cDNA encoding amino acids 144 to 2458 of human acetyl-CoA carboxylase 2; made in house; host or cells: Sf9 insect cells (baculovirus, pFastBac1)
T1 sequence (O00763 144-2458): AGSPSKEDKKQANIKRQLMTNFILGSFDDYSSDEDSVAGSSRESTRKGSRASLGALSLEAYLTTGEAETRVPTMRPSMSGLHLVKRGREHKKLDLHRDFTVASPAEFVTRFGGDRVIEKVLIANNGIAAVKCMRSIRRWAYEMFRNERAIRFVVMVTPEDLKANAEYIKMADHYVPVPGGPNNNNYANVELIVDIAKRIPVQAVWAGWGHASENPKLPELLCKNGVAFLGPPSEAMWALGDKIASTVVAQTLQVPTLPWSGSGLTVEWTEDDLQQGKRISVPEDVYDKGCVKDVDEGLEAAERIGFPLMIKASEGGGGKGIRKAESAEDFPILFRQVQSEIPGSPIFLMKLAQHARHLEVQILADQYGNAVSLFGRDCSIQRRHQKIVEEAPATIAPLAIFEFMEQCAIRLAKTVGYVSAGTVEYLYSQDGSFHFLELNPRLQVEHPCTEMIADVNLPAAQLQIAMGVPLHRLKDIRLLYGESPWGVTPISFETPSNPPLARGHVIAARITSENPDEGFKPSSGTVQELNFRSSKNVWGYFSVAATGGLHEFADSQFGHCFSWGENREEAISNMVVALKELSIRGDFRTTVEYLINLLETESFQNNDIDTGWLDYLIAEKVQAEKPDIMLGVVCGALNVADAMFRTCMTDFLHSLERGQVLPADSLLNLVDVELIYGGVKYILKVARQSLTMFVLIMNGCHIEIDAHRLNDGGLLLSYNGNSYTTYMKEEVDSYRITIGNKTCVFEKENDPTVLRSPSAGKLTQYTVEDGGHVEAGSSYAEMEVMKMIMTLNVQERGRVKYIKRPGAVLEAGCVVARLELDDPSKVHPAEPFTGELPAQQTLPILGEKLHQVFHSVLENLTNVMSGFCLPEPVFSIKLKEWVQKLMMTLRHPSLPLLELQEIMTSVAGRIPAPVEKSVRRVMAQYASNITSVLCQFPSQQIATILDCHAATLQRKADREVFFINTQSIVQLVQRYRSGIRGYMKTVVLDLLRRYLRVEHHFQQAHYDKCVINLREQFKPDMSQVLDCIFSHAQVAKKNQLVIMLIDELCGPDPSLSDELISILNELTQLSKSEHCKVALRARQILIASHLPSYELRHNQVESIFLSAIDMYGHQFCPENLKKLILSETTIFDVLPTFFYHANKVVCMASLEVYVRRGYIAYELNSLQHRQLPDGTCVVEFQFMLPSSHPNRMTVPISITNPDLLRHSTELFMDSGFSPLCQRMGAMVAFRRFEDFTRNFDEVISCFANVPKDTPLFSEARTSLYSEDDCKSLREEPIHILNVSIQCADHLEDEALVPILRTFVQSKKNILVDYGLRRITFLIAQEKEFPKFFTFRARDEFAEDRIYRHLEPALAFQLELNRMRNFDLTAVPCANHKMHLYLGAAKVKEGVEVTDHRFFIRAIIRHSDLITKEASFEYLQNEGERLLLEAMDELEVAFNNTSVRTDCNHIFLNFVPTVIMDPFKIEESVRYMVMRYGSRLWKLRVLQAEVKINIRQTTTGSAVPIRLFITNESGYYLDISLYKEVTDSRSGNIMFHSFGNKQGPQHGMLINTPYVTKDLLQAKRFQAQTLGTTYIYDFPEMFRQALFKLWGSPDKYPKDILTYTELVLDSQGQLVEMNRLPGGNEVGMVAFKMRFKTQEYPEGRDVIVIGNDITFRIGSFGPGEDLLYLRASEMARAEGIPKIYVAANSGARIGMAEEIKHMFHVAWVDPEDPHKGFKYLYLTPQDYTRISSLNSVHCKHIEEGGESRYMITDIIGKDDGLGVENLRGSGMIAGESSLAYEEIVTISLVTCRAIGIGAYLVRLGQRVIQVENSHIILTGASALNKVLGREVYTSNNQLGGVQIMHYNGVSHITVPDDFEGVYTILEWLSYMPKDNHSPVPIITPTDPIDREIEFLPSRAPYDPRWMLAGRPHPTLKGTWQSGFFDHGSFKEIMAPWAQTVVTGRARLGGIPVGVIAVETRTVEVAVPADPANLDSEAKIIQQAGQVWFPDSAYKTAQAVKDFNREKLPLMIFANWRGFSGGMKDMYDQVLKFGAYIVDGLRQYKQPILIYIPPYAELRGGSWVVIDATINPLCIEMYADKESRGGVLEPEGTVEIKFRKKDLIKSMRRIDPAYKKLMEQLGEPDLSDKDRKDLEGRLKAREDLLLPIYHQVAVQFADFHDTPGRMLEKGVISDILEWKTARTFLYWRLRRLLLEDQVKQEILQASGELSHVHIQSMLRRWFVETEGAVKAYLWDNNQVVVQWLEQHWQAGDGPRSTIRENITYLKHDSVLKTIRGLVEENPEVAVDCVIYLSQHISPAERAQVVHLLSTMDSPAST
Method in brief: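 Malonyl-CoA formation was read by LC/MS/MS MRM against a [13C3]-malonyl-CoA internal standard, after acetic acid quench. The enzyme was baculovirus/Sf9-expressed human ACC2 residues 144–2458, given 15 minutes room-temperature compound preincubation in HEPES pH 7.5 buffer with MgCl2, citrate and DTT. Substrate solution held 50 μM acetyl-CoA, 120 μM ATP and 2 mM KHCO3.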

Question: Which IC50 does the source give for `C[C@@H](NC(=O)C12CCC(NS(=O)(=O)c3cnc4c(c3)NCCN4)(CC1)CC2)c1ccc(F)cc1` [Example 270, (R)-N-(1-(4-fluorophenyl)ethyl)-4-(1,2,3,4-tetrahydropyrido[3,2-b]pyrazine-7-sulfonamido)bicyclo[2.2.2]octane-1-carboxamide] here?
Answer: 165 nM

Question: Which IC50 does the source give for `CCOC(=O)C1CCCN(C(=O)[C@H]2CC[C@H](NS(=O)(=O)c3ccc4cc(-c5ccc(F)cc5)n(C)c4c3)CC2)C1` (stereo partly drawn) [Example 345, ethyl 1-((1r,4r)-4-(2-(4-fluorophenyl)-1-methyl-1H-indole-6-sulfonamido)cyclohexanecarbonyl)piperidine-3-carboxylate] here?
Answer: 255 nM

Question: How did the IC50 turn out when `COC(=O)C(C)(C)[C@@H](NC(=O)[C@H]1CC[C@H](NS(=O)(=O)c2ccc3cc(-c4ccccc4)n(C)c3c2)CC1)c1ccccc1` [Example 407, (S)-methyl 2,2-dimethyl-3-((1r,4S)-4-(1-methyl-2-phenyl-1H-indole-6-sulfonamido)cyclohexanecarboxamido)-3-phenylpropanoate] was run?
Answer: < 10 nM

Question: Which IC50 does the source give for `COCc1ccc(-c2cc3ccc(S(=O)(=O)N[C@H]4CC[C@H](C(=O)N5CCOC[C@@H]5C5CC5)CC4)cc3[nH]2)cc1` [Example 455, N-((1S,4r)-4-((S)-3-cyclopropylmorpholine-4-carbonyl)cyclohexyl)-2-(4-(methoxymethyl)phenyl)-1H-indole-6-sulfonamide] here?
Answer: < 10 nM

Question: With `O=C(NC1(c2ccccc2)CC1)[C@H]1CC[C@H](NS(=O)(=O)c2ccc3[nH]c(-c4ccccc4)nc3c2)CC1` [Example 581, (1r,4r)-4-(2-phenyl-1H-benzo[d]imidazole-5-sulfonamido)-N-(1-phenylcyclopropyl)cyclohexanecarboxamide] as the compound, how does the IC50 read?
Answer: 309 nM

Question: How did the IC50 turn out when `CC(C)(C)c1nnc(-c2ccc(NS(=O)(=O)c3ccc4[nH]c(-c5ccc(N6CCOCC6)cc5)nc4c3)cc2)o1` [Example 593, N-(4-(5-tert-butyl-1,3,4-oxadiazol-2-yl)phenyl)-2-(4-morpholinophenyl)-1H-benzo[d]imidazole-5-sulfonamide] was run?
Answer: 1010 nM

Question: `C[C@H]1COCCN1C(=O)[C@H]1CC[C@H](NS(=O)(=O)c2ccc3cc(-c4ccccc4)n(C)c3c2)CC1` [Example 425, 1-methyl-N-((1S,4r)-4-((S)-3-methylmorpholine-4-carbonyl)cyclohexyl)-2-phenyl-1H-indole-6-sulfonamide] was tested. Which IC50 did it give?
Answer: 30 nM

Question: Which IC50 does the source give for `CC(C)OC(=O)c1ccc(NS(=O)(=O)c2ccc3nc(-c4cncs4)[nH]c3c2)cc1` [Example 510, isopropyl 4-(2-(thiazol-5-yl)-1H-benzo[d]imidazole-6-sulfonamido)benzoate] here?
Answer: 1810 nM

Question: For `COC[C@@H](NC(=O)[C@H]1CC[C@H](NS(=O)(=O)c2ccc3c(ccn3C)c2)CC1)c1ccccc1` [Example 674, (1r,4S)-N-((S)-2-methoxy-1-phenylethyl)-4-(1-methyl-1H-indole-5-sulfonamido)cyclohexanecarboxamide], which IC50 is on record?
Answer: 771 nM

Question: With `C[C@@H](NC(=O)[C@H]1CC[C@H](NS(=O)(=O)c2cnc3ccccc3c2)CC1)c1ccc(Cl)cc1` [Example 57, (1r,4R)-N-((R)-1-(4-chlorophenyl)ethyl)-4-(quinoline-3-sulfonamido)cyclohexanecarboxamide] as the compound, how does the IC50 read?
Answer: 112 nM

Question: With `COc1ccc(-c2cc3ccc(S(=O)(=O)N[C@H]4CC[C@H](C(=O)N5CCOC[C@@H]5C5CC5)CC4)cc3n2C)cc1` [Example 454, N-((1S,4r)-4-((S)-3-cyclopropylmorpholine-4-carbonyl)cyclohexyl)-2-(4-methoxyphenyl)-1-methyl-1H-indole-6-sulfonamide] as the compound, how does the IC50 read?
Answer: < 10 nM

Question: `[2H]C1([2H])Nc2cc(S(=O)(=O)NC3CCC(C(=O)N[C@H](C)c4ccc(F)cc4)CC3)cnc2NC1([2H])[2H]` (stereo partly drawn) [Example 199, (R)-N-(1-(4-fluorophenyl)ethyl)-4-(2,2,3,3-tetradeuterio-1,2,3,4-tetrahydropyrido[3,2-b]pyrazine-7-sulfonamido)cyclohexanecarboxamide] was tested. Which IC50 did it give?
Answer: 75 nM

Question: `O=C(NCCc1ccccc1)[C@H]1CC[C@H](NS(=O)(=O)c2ccc3[nH]c(-c4ccccc4)nc3c2)CC1` [Example 628, (1r,4r)-N-phenethyl-4-(2-phenyl-1H-benzo[d]imidazole-5-sulfonamido)cyclohexanecarboxamide] was tested. Which IC50 did it give?
Answer: 408 nM

Question: With `C[C@@H](NC(=O)[C@H]1CC[C@H](NS(=O)(=O)c2ccc3nc(Cl)ccc3c2)CC1)c1ccc(F)cc1` [Example 42, (1r,4R)-4-(2-chloroquinoline-6-sulfonamido)-N-((R)-1-(4-fluorophenyl)ethyl)cyclohexanecarboxamide] as the compound, how does the IC50 read?
Answer: 94 nM

Question: For `Cn1c(-c2ccccc2)cc2ccc(S(=O)(=O)N[C@H]3CC[C@H](C(=O)N4CCCCC4)CC3)cc21` [Example 376, 1-methyl-2-phenyl-N-((1r,4r)-4-(piperidine-1-carbonyl)cyclohexyl)-1H-indole-6-sulfonamide], which IC50 is on record?
Answer: 95 nM

Question: For `C[C@@H](NC(=O)[C@H]1CC[C@H](NS(=O)(=O)c2ccc3nc(-c4ccccc4)cn3c2)CC1)c1ccc(F)cc1` [Example 79, (1r,4R)-N-((R)-1-(4-fluorophenyl)ethyl)-4-(2-phenylimidazo[1,2-a]pyridine-6-sulfonamido)cyclohexanecarboxamide], which IC50 is on record?
Answer: 115 nM

Question: With `O=C([C@H]1CC[C@H](NS(=O)(=O)c2ccc3oc4ccccc4c3c2)CC1)N1CCNC[C@@H]1c1ccccc1` [Example 256, N-((1S,4r)-4-((S)-2-phenylpiperazine-1-carbonyl)cyclohexyl)dibenzo[b,d]furan-2-sulfonamide] as the compound, how does the IC50 read?
Answer: 20 nM

Question: `Cn1c(-c2ccc(CCC(=O)O)cc2)cc2ccc(S(=O)(=O)N[C@H]3CC[C@H](C(=O)N4CCOC[C@@H]4C4CC4)CC3)cc21` [Example 476, 3-(4-(6-(N-((1S,4r)-4-((S)-3-cyclopropylmorpholine-4-carbonyl)cyclohexyl)sulfamoyl)-1-methyl-1H-indol-2-yl)phenyl)propanoic acid] was tested. Which IC50 did it give?
Answer: < 10 nM

Question: How did the IC50 turn out when `CC(NC(=O)[C@H]1CC[C@H](NS(=O)(=O)c2ccc3ccccc3c2)CC1)c1cccnc1` (stereo partly drawn) [Example 680, (1r,4r)-4-(naphthalene-2-sulfonamido)-N-(1-(pyridin-3-yl)ethyl)cyclohexanecarboxamide] was run?
Answer: 240 nM

Question: With `Cc1ccccc1-c1cc2ccc(S(=O)(=O)N[C@H]3CC[C@H](C(=O)N4CCCC(C(F)(F)F)C4)CC3)cc2[nH]1` (stereo partly drawn) [Example 321, 2-o-tolyl-N-((1r,4r)-4-(3-(trifluoromethyl)piperidine-1-carbonyl)cyclohexyl)-1H-indole-6-sulfonamide] as the compound, how does the IC50 read?
Answer: 250 nM

Question: For `Cn1c(-c2ccc(CCC(=O)O)cc2)c(C#N)c2ccc(S(=O)(=O)N[C@H]3CC[C@H](C(=O)N4CCC[C@@H]4C(C)(C)C)CC3)cc21` [Example 430, 3-(4-(6-(N-((1R,4r)-4-((R)-2-tert-butylpyrrolidine-1-carbonyl)cyclohexyl)sulfamoyl)-3-cyano-1-methyl-1H-indol-2-yl)phenyl)propanoic acid], which IC50 is on record?
Answer: < 10 nM

Question: `CC(C)(C)c1nnc([C@H]2CC[C@H](NS(=O)(=O)c3ccc4[nH]c(-c5cccc(C(=O)O)c5)nc4c3)CC2)o1` [Example 610, 3-(5-(N-((1r,4r)-4-(5-tert-butyl-1,3,4-oxadiazol-2-yl)cyclohexyl)sulfamoyl)-1H-benzo[d]imidazol-2-yl)benzoic acid] was tested. Which IC50 did it give?
Answer: 1740 nM

Question: Which IC50 does the source give for `Cn1c(-c2ccccc2)cc2cc(S(=O)(=O)N[C@H]3CC[C@H](C(=O)N[C@@H](c4ccccc4)C(C)(C)O)CC3)ccc21` [Example 15, (1r,4S)—N—((S)-2-hydroxy-2-methyl-1-phenylpropyl)-4-(1-methyl-2-phenyl-1H-indole-5-sulfonamido)cyclohexanecarboxamide] here?
Answer: < 10 nM

Question: Which IC50 does the source give for `COCCc1ccc(-c2cc3ccc(S(=O)(=O)N[C@H]4CC[C@H](C(=O)N5CCOC[C@@H]5C5CC5)CC4)cc3[nH]2)cc1` [Example 470, N-((1S,4r)-4-((S)-3-cyclopropylmorpholine-4-carbonyl)cyclohexyl)-2-(4-(2-methoxyethyl)phenyl)-1H-indole-6-sulfonamide] here?
Answer: < 10 nM

Question: With `Cn1c(-c2ccccc2)cc2ccc(S(=O)(=O)N[C@H]3CC[C@H](C(=O)N4CCC[C@H](C(C)(C)O)C4)CC3)cc21` [Example 404, N-((1S,4r)-4-((S)-3-(2-hydroxypropan-2-yl)piperldine-1-carbonyl)cyclohexyl)-1-methyl-2-phenyl-1H-indole-6-sulfonamide] as the compound, how does the IC50 read?
Answer: < 10 nM

Question: Which IC50 does the source give for `Cc1nc2cc(S(=O)(=O)N[C@H]3CC[C@H](C(=O)N[C@H](C)c4ccc(F)cc4)CC3)ccc2n1C` [Example 5, (1r,4R)-4-(1,2-dimethyl-1H-benzo[d]imidazole-5-sulfonamido)-N—((R)-1-(4-fluorophenyl)ethyl)cyclohexanecarboxamide] here?
Answer: 244 nM

Question: Which IC50 does the source give for `CCOc1ccc2cc(S(=O)(=O)NC3CCC(C(=O)NC(c4ccccc4)C(C)OC(=O)C(N)C(C)C)CC3)ccc2n1` [Example 271, (S)-((1S,2S)-1-((1r,4S)-1-((1r,4S)-4-(2-ethoxyquinoline-6-sulfonamido)cyclohexanecarboxamido)-1-phenylpropan-2-yl) 2-amino-3-methylbutanoate] here?
Answer: 195 nM

Question: How did the IC50 turn out when `CCOC(=O)C1CCCCN1C(=O)[C@H]1CC[C@H](NS(=O)(=O)c2ccc3cc(-c4ccc(COC)cc4)n(C)c3c2)CC1` (stereo partly drawn) [Example 341, ethyl 1-((1r,4r)-4-(2-(4-(methoxymethyl)phenyl)-1-methyl-1H-indole-6-sulfonamido)cyclohexanecarbonyl)piperidine-2-carboxylate] was run?
Answer: 240 nM

Question: `CC(C)(C)c1nnc([C@H]2CC[C@H](NS(=O)(=O)c3ccc4[nH]c(-c5cccnc5)nc4c3)CC2)o1` [Example 653, N-((1r,4r)-4-(5-tert-butyl-1,3,4-oxadiazol-2-yl)cyclohexyl)-2-(pyridin-3-yl)-1H-benzo[d]imidazole-5-sulfonamide] was tested. Which IC50 did it give?
Answer: 2030 nM

Question: Which IC50 does the source give for `O=C(NCCc1cccnc1)[C@H]1CC[C@H](NS(=O)(=O)c2ccc3[nH]c(-c4ccccc4)nc3c2)CC1` [Example 643, (1r,4r)-4-(2-phenyl-1H-benzo[d]imidazole-5-sulfonamido)-N-(2-(pyridin-3-yl)ethyl)cyclohexanecarboxamide] here?
Answer: 283 nM
